Biological target: T1, CauloGA (Protein A-CauloGA fusion) (Caulobacter vibrioides, UniProt Q9A613)
T1 construct: gene CC_2282; putative signal peptide removed; N-terminal Staphylococcus Protein A (synthetic ZZ domain) fusion kept; pEZZ18, E. coli HB101; IgG Sepharose; fusion 96 kDa, CauloGA about 82 kDa
Assay: initial rate, glucose release (F-kit D-glucose), nonlinear regression
Format: biochemical
Settings: apparent substrate inhibition constant
Source text: initial rate, glucose release (F-kit D-glucose), nonlinear regression on CauloGA (Protein A-CauloGA fusion)

T1 sequence (Q9A613 entry or part of it): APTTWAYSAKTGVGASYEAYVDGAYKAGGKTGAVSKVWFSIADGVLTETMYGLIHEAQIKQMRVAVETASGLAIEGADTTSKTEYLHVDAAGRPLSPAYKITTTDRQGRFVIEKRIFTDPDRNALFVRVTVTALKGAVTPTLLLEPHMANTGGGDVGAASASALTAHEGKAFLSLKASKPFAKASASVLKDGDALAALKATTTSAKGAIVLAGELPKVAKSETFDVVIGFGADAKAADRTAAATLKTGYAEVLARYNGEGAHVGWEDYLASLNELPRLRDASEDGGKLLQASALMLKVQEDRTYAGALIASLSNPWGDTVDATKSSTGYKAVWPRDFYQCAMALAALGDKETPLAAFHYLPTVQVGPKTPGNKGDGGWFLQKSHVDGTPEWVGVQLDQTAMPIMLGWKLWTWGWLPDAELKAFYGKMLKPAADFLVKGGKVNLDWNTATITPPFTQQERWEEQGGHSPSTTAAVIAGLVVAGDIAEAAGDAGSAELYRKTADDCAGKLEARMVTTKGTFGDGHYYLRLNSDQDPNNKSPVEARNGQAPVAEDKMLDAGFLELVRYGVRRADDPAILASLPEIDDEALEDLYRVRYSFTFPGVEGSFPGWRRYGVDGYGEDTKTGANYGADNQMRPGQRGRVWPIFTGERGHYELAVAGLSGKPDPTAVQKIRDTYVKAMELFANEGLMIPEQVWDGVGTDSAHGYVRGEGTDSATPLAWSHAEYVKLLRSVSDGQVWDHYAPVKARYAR

Row | Structure (SMILES) | Ki^b (0-9 mM substrate, pH 5.0, 30°C) | other results
1 | OC[C@H]1O[C@H](O[C@H]2[C@H](O)[C@@H](O)[C@@H](O[C@H]3[C@H](O)[C@@H](O)[C@@H](O[C@H]4[C@H](O)[C@@H](O)C(O)O[C@@H]4CO)O[C@@H]3CO)O[C@@H]2CO)[C@H](O)[C@@H](O)[C@@H]1O (stereo partly drawn) [Maltotetraose] | – | Ki^b (0-18 mM substrate, pH 5.0, 30°C): 1100 ± 60 µM
2 | OC[C@H]1O[C@H](O[C@H]2[C@H](O)[C@@H](O)[C@@H](O[C@H]3[C@H](O)[C@@H](O)C(O)O[C@@H]3CO)O[C@@H]2CO)[C@H](O)[C@@H](O)[C@@H]1O (stereo partly drawn) [Maltotriose] | – | Ki^b (0-18 mM substrate, pH 5.0, 30°C, text b46 prints approximately 4.2 mM): 4490 ± 310 µM
3 | OC[C@H]1O[C@H](O[C@H]2[C@H](O)[C@@H](O)C(O)O[C@@H]2CO)[C@H](O)[C@@H](O)[C@@H]1O (stereo partly drawn) [Maltose] | – | Ki^b (0-18 mM substrate, 50 mM acetate buffer pH 5.0, 30°C): 38200 ± 1110 µM
4 | OC[C@H]1O[C@H](O[C@H]2[C@H](O)[C@@H](O)[C@@H](O[C@H]3[C@H](O)[C@@H](O)[C@@H](O[C@H]4[C@H](O)[C@@H](O)[C@@H](O[C@H]5[C@H](O)[C@@H](O)C(O)O[C@@H]5CO)O[C@@H]4CO)O[C@@H]3CO)O[C@@H]2CO)[C@H](O)[C@@H](O)[C@@H]1O (stereo partly drawn) [Maltopentaose] | 920 ± 40 µM | –
5 | OC[C@H]1O[C@H](O[C@H]2[C@H](O)[C@@H](O)[C@@H](O[C@H]3[C@H](O)[C@@H](O)[C@@H](O[C@H]4[C@H](O)[C@@H](O)[C@@H](O[C@H]5[C@H](O)[C@@H](O)[C@@H](O[C@H]6[C@H](O)[C@@H](O)[C@@H](O[C@H]7[C@H](O)[C@@H](O)C(O)O[C@@H]7CO)O[C@@H]6CO)O[C@@H]5CO)O[C@@H]4CO)O[C@@H]3CO)O[C@@H]2CO)[C@H](O)[C@@H](O)[C@@H]1O (stereo partly drawn) [Maltoheptaose] | 1250 ± 250 µM | –
6 | OC[C@H]1O[C@H](O[C@H]2[C@H](O)[C@@H](O)[C@@H](O[C@H]3[C@H](O)[C@@H](O)[C@@H](O[C@H]4[C@H](O)[C@@H](O)[C@@H](O[C@H]5[C@H](O)[C@@H](O)[C@@H](O[C@H]6[C@H](O)[C@@H](O)C(O)O[C@@H]6CO)O[C@@H]5CO)O[C@@H]4CO)O[C@@H]3CO)O[C@@H]2CO)[C@H](O)[C@@H](O)[C@@H]1O (stereo partly drawn) [Maltohexaose] | 1050 ± 80 µM | –

From article PMC3917699, “Glucoamylase of Caulobacter crescentus CB15: cloning and expression in Escherichia coli and functional identification” (AMB Express, 2014)
